According to patent US7361349B2, “Peptide, immunogenic composition and vaccine or medical preparation, a method to immunize animals against the hormone LHRH, and analogs of the LHRH tandem repeat peptide and their use as vaccine” (Pepscan Systems B.V., priority 1996, dated 2008):
“Also recorded” adds a separate entry of the source. Non-standard residues stand in square brackets, D forms with d. pGlu = O=C1CC[C@@H](C(=O)O)N1

Tests used:
[1] = system: peptides used for immunization; experiment: Peptide antibodies ELISA of antisera; type: in vivo, pig; conditions: for anti peptide titer at 10 wpv: Table 3, mean titer against the peptide used for immunization
Description: Antibodies to the peptides used for immunization were determined with an ELISA. Peptides were coated in the wells of a microtitreplate using glutardialdehyde (GDA). GDA was coated to the surface of the wells by incubation with 0.2% GDA in 0.1 M phosphate buffer (pH 5) for 4 hours at room temperature. Plates were rinsed 3 times for 10 minutes with 0.1 M phosphate buffer (pH 8). One microgram peptide in […] phosphate buffer (0.1 M, pH 8) was coated per well by incubating for 3 hours at 37° C. Plates were stored at −20° C. until used. Thawed plates were rinsed 3 times for 10 minutes with milli Q water containing 8.2 g NaCl, 1.15 g Na2HPO4.2H2O, 0.20 g NaH2PO4.2H2O and 5 ml of a 10% Tween 80 solution in water per liter water.
Serial serum dilutions of the antipeptide sera were allowed to react with the coated peptides for 1 hour at 25° C. After rinsing 3 times for 10 minutes, goat-anti-pig IgG coupled to horseradish peroxidase (Dako, Glastrup, Denmark) was introduced as second antibody for 1 hour and ABTS (Boehringer, Mannheim, Germany) (([…] (2 g/100 ml) in 10 ml substrate buffer to which […] H2O2 (3% solution)) was used as substrate. Absorption was measured at 405 nm.

^125I-GnRH = experiment: GnRH antibodies: binding of pig antisera to 125I-GnRH; type: in vivo; conditions: for GnRH binding (average): Table 3, GnRH antibody binding percentage of 125I-GnRH, average per treatment
Description: Antibodies to GnRH were determined as described by Meloen et al. (Vaccine 12, 741-746 (1994)). Serial dilutions of the pig antisera were allowed to bind to ^125I-GnRH. Titers are expressed as percentage binding of ^125I-GnRH at a given serum dilution.
(§1) Serum samples of the 10 wpv bleeding (3 weeks post booster immunization) were diluted 1/10000 in PBS with 0.4% BSA (dilution buffer). Fifty μl serum dilution was put in microwell plates and 25 μl peptide solution (0, 0.25, 2.5 or 25 pmol peptide in dilution buffer per well) was added. This mixture was allowed to incubate for 24 hours at 4° C. The next day, 25 μl iodinated GnRH (approximately 13000 cpm) was added and after overnight storage (4° C.) unbound peptide was separated from bound peptide with charcoal. After centrifugation, supernatant was separated, counted and the percentage of iodinated GnRH bound to the antibodies was calculated.

testosterone = experiment: Testosterone levels in serum (Coat-a-Count kit); type: in vivo, pig; conditions: for testosterone (pmol/ml) at 13 wpv median (range): Table 3, serum, n.d. = not detectable; for testosterone level (in words): after immunization
Description: Blood samples were taken via puncture of the vena jugularis on the same days testis sizes were measured, and also 4 weeks after the initial immunization. Blood samples were kept overnight at 4° C. and the next day serum was obtained by centrifugation (1500 g, 15 min). Serum samples were stored at −20° C. until assayed.
Testosterone levels in serum were determined using a Coat-a-Count kit purchased from DPC laboratories, Los Angeles, Calif.

Male piglets = experiment: Immunocastration of pigs: testis size and testis weight after immunization; type: in vivo, pig; conditions: for testis weight (g) (median (range)) / number responders/total number: Table 2; for testis weight (g) (median (range)): after slaughter at 13 wpv; for number responders/total number: effectiveness according to testis weight; for testis weight (median range): Table 3; for animals that did not respond to the immunization: number of animals per group of 7
Description: Male piglets, approximately 10 weeks of age, were involved in this experiment. The crossbred piglets were housed in half-slatted pens and were given ad libitum access to feed and water.
The piglets were randomly assigned to the treatments, 6 or 7 piglets per treatment. All animals were injected with 2 ml emulsion containing the dimerized tandem GnRH conjugates (i.e., […] peptide) or an emulsion without antigen. Injections were administered intramuscularly in the neck at the start of the experiment (day 0) and 7 weeks later (7 wpv). Thirteen weeks after initial immunization (13 wpv) all animals were slaughtered.
Animals were weighed at day 0 and 7 and 13 wpv. Testis sizes were determined by measuring testis length with Vernier calipers at day 0, and 7, 10 and 13 weeks thereafter. Testis sizes were recorded as average of both testicles.
After slaughter testes were removed, dissected free of epididymes and weighed. Testes weights were recorded as average of both testicles.

GnRH-II = experiment: GnRH antibody binding competitive radioimmunoassay, competition by GnRH-II; set-up: species or system pig; conditions: for sera with reduced binding to iodinated GnRH after competition by GnRH-II / binding of antibodies to GnRH-II: 10 wpv sera; for sera with reduced binding to iodinated GnRH after competition by GnRH-II / animals whose 10 wpv sera did not bind to GnRH-II: 1/10000 dilution; for sera with reduced binding to iodinated GnRH after competition by GnRH-II: share of sera per treatment; for binding of antibodies to GnRH-II: substantially all animals of the group; for animals whose 10 wpv sera did not bind to GnRH-II: 25 pmol peptide per well
Description: To determine whether antibodies raised by the GnRH vaccines according to the present invention discriminated between GnRH-I and GnRH-II, a GnRH antibody binding assay was performed in order to determine whether antibodies rose against GnRH-I-tandem dimer peptide or its alanine replacement analogs bind to GnRH-II or lack binding to GnRH-II. Serum dilutions were preincubated with either GnRH-I, GnRH-II, a control peptide, or no peptide. Next, iodinated GnRH-I was added to compete with the preincubated peptides for binding to the antibodies.
A GnRH antibody binding competitive radioimmunoassay was performed in order to determine whether antibodies raised against G6k-GnRH-tandem (SEQ ID NO: 9) dimer peptide or its alanine replacement analogs bind to GnRH-II or lack binding to GnRH-II. Serum dilutions were preincubated with either GnRH-I, GnRH-II, a control peptide or no peptide. Next, iodinated GnRH-I was added to compete with the preincubated peptides for binding to the antibodies.
This procedure was performed for serum collected before and after booster immunization, as specificity of the antibodies may increase after booster immunization due to antibody maturation.
as §1
Antibodies collected after the first immunization (7 wpv) were tested in a 1/2000 serum dilution and only one peptide dilution was tested (25 pmol/well).

[2] = 7 wpv (before booster), 1/2000 dilution, 25 pmol/well

| Substance | anti peptide titer at 10 wpv [1] | GnRH binding (average) (^125I-GnRH) | testosterone (pmol/ml) at 13 wpv median (range) (testosterone) | testosterone level (in words) (testosterone) | testes weight (in words) (Male piglets) | testis weight (g) (median (range)) (Male piglets) | number responders/total number (Male piglets) | testis weight (median range) (Male piglets) | sera with reduced binding to iodinated GnRH after competition by GnRH-II (GnRH-II) | animals that did not respond to the immunization (Male piglets) | antibody titers against the peptides used for immunization (in words) [1] | animals whose prebooster sera showed binding to GnRH-II (GnRH-II; [2]) | binding of antibodies to GnRH-II (GnRH-II) | animals whose 10 wpv sera did not bind to GnRH-II (GnRH-II) | prebooster sera with no binding to iodinated GnRH (^125I-GnRH; 7 wpv (before booster), 1/2000 dilution) | prebooster sera that did not recognize GnRH-II (GnRH-II; [2]) |
| --- | --- | --- | --- | --- | --- | --- | --- | --- | --- | --- | --- | --- | --- | --- | --- | --- |
| G10A-G6k-GnRH-tandem ([pGlu]HWSY[dK]LRPAQHWSY[dK]LRPAC-NH2; also: dimerized through Cys 21) | 3.19 | 17.6% | n.d. (n.d.) | undetectable testosterone levels; also recorded: low testosterone level | low testes weight | 14 (11-39) g | 7/7 | 14 (11-39) | all sera | – | – | – | – | – | – | – |
| L7A-G6k-GnRH-tandem ([pGlu]HWSY[dK]ARPGQHWSY[dK]ARPGC-NH2; also: dimer via Cys21) | 3.52 | 17.6% | – | – | – | 20 (12-195) g | 6/7 | 20 (12-195) | half of the sera | 1 | – | – | – | – | – | – |
| P9A-G6k-GnRH-tandem-dimer conjugate ([pGlu]HWSY[dK]LRAGQHWSY[dK]LRAGC-NH2; also: dimerized through Cys 21, ovalbumin conjugate) | 2.62 | 15.8% | – | – | – | 23 (8-300) g | 6/7 | 23 (8-300) | most of the sera | 1 | lower than peptide antibody titers of other treatments | – | – | – | – | – |
| R8A-G6k-GnRH-tandem ([pGlu]HWSY[dK]LAPGQHWSY[dK]LAPGC-NH2; also: dimer via Cys21) | 3.34 | 17.7% | n.d. (n.d.) | undetectable testosterone levels; also recorded: low testosterone level | low testes weight | 15 (10-19) g | 7/7 | 15 (10-19) | all sera | – | – | – | – | – | – | – |
| S4A-G6k-GnRH-tandem ([pGlu]HWAY[dK]LRPGQHWAY[dK]LRPGC-NH2; also: dimer via Cys21) | 3.19 | 16.9% | n.d. (n.d.) | undetectable testosterone levels; also recorded: low testosterone level | effective in terms of low testes weights; also recorded: low testes weight | 36 (10-69) g | 7/7 | 36 (10-69) | – | – | – | all animals | completely lacked binding to GnRH-II | 6 out of 7 | – | – |
| Y5A-G6k-GnRH-tandem ([pGlu]HWSA[dK]LRPGQHWSA[dK]LRPGC-NH2; also: dimer via Cys21) | 2.92 | 11.3% | – | – | – | 44 (15-235) g | 5/7 | 44 (15-235) | half of the sera | 2 | – | – | – | – | – | – |
| pE1A-G6k-GnRH-tandem-dimer OVA conjugate (Ac-AHWSY[dK]LRPGAHWSY[dK]LRPGC-NH2; also: dimerized through Cys 21, ovalbumin conjugate) | 3.24 | 15.7% | – | – | effective in terms of low testes weights | 36 (16-65) g | 7/7 | 36 (16-65) | – | – | – | 4 out of 7 | completely lacked binding to GnRH-II | 6 out of 7 | one | Two |
